Data taken from patent US7709516B2, “Helix 12 directed non-steroidal antiandrogens” (Endorecherche, Inc., priority 2005, dated 2010).
Like-named read-outs stand apart in the source and are kept apart here.

Columns and labels:
Human Androgen Receptor = target: T1, Human Androgen Receptor (Homo sapiens, UniProt P10275); assay: Androgen receptor binding assay ([3H]R1881, HAP) in cytosol of HEK-293 cells transfected with hAR; details: relative to R1881 = 100, transfected cells
T1 sequence (P10275 1-920): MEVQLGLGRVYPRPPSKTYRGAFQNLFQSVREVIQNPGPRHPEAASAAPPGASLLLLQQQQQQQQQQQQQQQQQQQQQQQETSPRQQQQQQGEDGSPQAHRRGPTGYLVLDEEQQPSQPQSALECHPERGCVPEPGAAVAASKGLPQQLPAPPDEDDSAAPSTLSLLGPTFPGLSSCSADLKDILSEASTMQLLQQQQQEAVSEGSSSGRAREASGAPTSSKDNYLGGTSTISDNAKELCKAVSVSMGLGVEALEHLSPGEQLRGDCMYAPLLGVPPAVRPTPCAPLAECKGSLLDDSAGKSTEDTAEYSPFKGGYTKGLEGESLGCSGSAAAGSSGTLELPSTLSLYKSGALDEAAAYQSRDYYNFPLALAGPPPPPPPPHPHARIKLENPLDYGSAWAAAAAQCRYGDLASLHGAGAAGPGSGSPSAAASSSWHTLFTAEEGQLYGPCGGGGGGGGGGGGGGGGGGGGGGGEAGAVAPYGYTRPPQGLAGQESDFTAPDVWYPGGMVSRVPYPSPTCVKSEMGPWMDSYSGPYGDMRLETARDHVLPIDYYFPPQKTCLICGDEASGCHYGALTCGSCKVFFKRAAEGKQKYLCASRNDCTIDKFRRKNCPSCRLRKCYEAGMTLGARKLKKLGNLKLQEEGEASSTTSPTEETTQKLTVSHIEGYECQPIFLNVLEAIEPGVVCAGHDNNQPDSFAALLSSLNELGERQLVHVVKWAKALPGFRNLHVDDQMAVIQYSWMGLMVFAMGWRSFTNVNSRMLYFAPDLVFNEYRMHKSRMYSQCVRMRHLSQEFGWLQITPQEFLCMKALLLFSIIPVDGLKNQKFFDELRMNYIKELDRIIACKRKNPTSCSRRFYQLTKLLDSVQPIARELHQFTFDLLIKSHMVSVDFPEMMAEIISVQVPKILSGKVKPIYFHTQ

[1] = test system: Shionogi mouse mammary carcinoma cells; assay: Androgenic/antiandrogenic activity: inhibition of DHT-stimulated Shionogi cell number; assay type: cell-based; details: Mus musculus, DHT-stimulated Shionogi cell number
[2] = test system: rat prostate, seminal vesicle, levator ani muscle; assay: Systemic antiandrogenic activity in orchidectomized immature male rats with DHT implant; assay type: in vivo; details: Rattus norvegicus, 168 h
[3] = read-out: Shionogi Antiandrogenic Activity IC50, Table 1
[4] = read-out: Lev Ani % inhibition, Table 1, rat +DHT, s.c. or p.o. (route not marked), levator ani, 0.5 mg/animal daily 7 days
[5] = read-out: Prostate % inhibition, Table 1, rat +DHT, s.c. or p.o. (route not marked in cell), 0.5 mg/animal daily 7 days
[6] = read-out: SV % inhibition, Table 1, rat +DHT, s.c. or p.o. (route not marked), seminal vesicle, 0.5 mg/animal daily 7 days

SMILES | Human Androgen Receptor Binding (%) RBA R1881 = 100 (Human Androgen Receptor; Table 1) [%] | IC50 [1, 3] [nM] | inhibition in vivo at 0.5 mg [2, 4] [%] | inhibition in vivo at 0.5 mg [2, 5] [%] | inhibition in vivo at 0.5 mg [2, 6] [%] | other results
CCC(CC)NCc1ccc(OCCCN2C(=S)N(c3ccc(C#N)c(C(F)(F)F)c3)C(=O)C2(C)C)cc1 [EM-7144] | 14.0 | 22.5 | 41 | 45 | 61 | 
CCNCc1ccc(OCCCN2C(=S)N(c3ccc(C#N)c(C(F)(F)F)c3)C(=O)C2(C)C)cc1 [EM-7148] | 12.0 | 6.1 | 75 | 58 | 85 | 
CCC(=O)c1ccc(OCCCN2C(=S)N(c3ccc(C#N)c(C(F)(F)F)c3)C(=O)C2(C)C)cc1 [EM-7154] | 64.7 | 20 | 6 | 8 | 31 | 
CC(=O)c1ccc(OCCCN2C(=S)N(c3ccc(C#N)c(C(F)(F)F)c3)C(=O)C2(C)C)cc1 [EM-7168] | 49.3 | 13 | 0 | 14 | 54 | 
CC(NC1CC1)c1ccc(OCCCN2C(=S)N(c3ccc(C#N)c(C(F)(F)F)c3)C(=O)C2(C)C)cc1 (centres unmarked) [EM-7169] | 21.7 | 11 | 31 | 45 | 72 | 
CN(C)Cc1ccc(OCCCN2C(=S)N(c3ccc(C#N)c(C(F)(F)F)c3)C(=O)C2(C)C)cc1 [EM-7192] | 15.6 | 11.5 | 0 | 53 | 75 | 
CC(C)NC(=O)c1ccc(OCCCN2C(=S)N(c3ccc(C#N)c(C(F)(F)F)c3)C(=O)C2(C)C)cc1 [EM-7202] | 37.0 | 36.5 | 0 | 26 | 63 | 
CCC(NC(C)C)c1ccc(OCCCN2C(=S)N(c3ccc(C#N)c(C(F)(F)F)c3)C(=O)C2(C)C)cc1 (centres unmarked) [EM-7203] | 48.4 | 8.9 | 4 | 37 | 66 | 
CCC(C)NCc1ccc(OCCCN2C(=S)N(c3ccc(C#N)c(C(F)(F)F)c3)C(=O)C2(C)C)cc1 (centres unmarked) [EM-7225] | 15.3 | 12.5 | 14 | 52 | 71 | 
CCCNCc1ccc(OCCCN2C(=S)N(c3ccc(C#N)c(C(F)(F)F)c3)C(=O)C2(C)C)cc1 [EM-7227] | 18.0 | 10.8 | 1 | 35 | 77 | 
CC1(C)C(=O)N(c2ccc(C#N)c(C(F)(F)F)c2)C(=S)N1CCCOc1ccc(CN2CCCC2)cc1 [EM-7232, 4-{4,4-Dimethyl-5-oxo-3-[3-(4-pyrrolidin-1-ylmethyl-phenoxy)-]-2-thioxo-imidazolidin-1-yl}-2-trifluoro-benzonitrile] | 19.0 | 7.6 | 70 | 45 | 84 | 
CC(C)N(C)Cc1ccc(OCCCN2C(=S)N(c3ccc(C#N)c(C(F)(F)F)c3)C(=O)C2(C)C)cc1 [EM-7233] | 15.0 | 12 | 70 | 54 | 82 | 
CC(C)NC(C)c1ccc(OCCCN2C(=S)N(c3ccc(C#N)c(C(F)(F)F)c3)C(=O)C2(C)C)cc1 (centres unmarked) [EM-7234, 4-(3-{3-[4-(1-Isopropylamino-ethyl)-phenoxy]-propyl}-4,4-dimethyl-5-oxo-2-thioxo-imidazolidin-1-yl)-2-tifluoromethyl-benzonitile] | 30.4 | 6.2 | 75 | 50 | 82 | 
CCN(C)Cc1ccc(OCCCN2C(=S)N(c3ccc(C#N)c(C(F)(F)F)c3)C(=O)C2(C)C)cc1 [EM-7242] | 18.0 | 9.8 | 55 | 41 | 72 | 
CC(c1ccc(OCCCN2C(=S)N(c3ccc(C#N)c(C(F)(F)F)c3)C(=O)C2(C)C)cc1)N(C)C (centres unmarked) [EM-7243] | 14.0 | 14 | 73 | 34 | 72 | 
CC1(C)C(=O)N(c2ccc(C#N)c(C(F)(F)F)c2)C(=S)N1CCCOc1ccc(CN2CCOCC2)cc1 [EM-7248] | 32.4 | 19 | 44 | 37 | 62 | 
COC(=O)c1ccc(OCCCN2C(=S)N(c3ccc(C#N)c(C(F)(F)F)c3)C(=O)C2(C)C)cc1 [EM-7260] | 93.3 | 17 | 0 | 25 | 47 | 
Cc1cc(CNC(C)C)ccc1OCCCN1C(=S)N(c2ccc(C#N)c(C(F)(F)F)c2)C(=O)C1(C)C [EM-7297] | 59.0 | 6.3 | 31 | 29 | 37 | 
CN(C)Cc1ccc(OCCCN2C(=O)N(c3ccc(C#N)c(C(F)(F)F)c3)C(=O)C2(C)C)cc1 [EM-7334, 4-{3-[3-(4-Dimethylaminomethyl-phenoxy)-propyl]-4,4-dimethyl-2,5-dioxo-imidazolidin-1-yl}-2-trifluoromethyl-benzonitrile] | 0.5 |  |  | 14 | 26 | IC50 ([1]; Table 1, read-out: Shionogi Antiandrogenic Activity IC50): 118 nM
CC1(C)C(=O)N(c2ccc(C#N)c(C(F)(F)F)c2)C(=S)N1CCCOc1ccc(CN2CCC(O)C2)cc1 (centres unmarked) [EM-7365] | 24.0 | 6 | 19 | 22 | 43 | 
Cc1cc(CN2CCOCC2)ccc1OCCCN1C(=S)N(c2ccc(C#N)c(C(F)(F)F)c2)C(=O)C1(C)C [EM-7366] | 209.0 | 22 | 16 | 26 | 70 | 
CC1(C)C(=O)N(c2ccc(C#N)c(C(F)(F)F)c2)C(=S)N1CCCOc1ccc(CN2CCC(=O)C2)cc1 [EM-7371] | 53.0 | 15 | 21 | 16 | 48 | 
Cc1cc(CN2CCCC2)ccc1OCCC1(O)CCN(c2ccc(C#N)c(C(F)(F)F)c2)CC1 [EM-7657] |  |  |  |  |  | Human Androgen Receptor Binding (%) RBA R1881 = 100 (Human Androgen Receptor; Table 2): 3.0%; IC50 ([1]; read-out: Shionogi Antiandrogenic Activity IC50, Table 2): 22 nM; inhibition in vivo at 0.5 mg ([2]; read-out: Lev Ani % inhibition, Table 2, rat +DHT, s.c. or p.o. (route not marked), levator ani, 0.5 mg/animal daily 7 days): 55%; inhibition in vivo at 0.5 mg ([2]; read-out: Prostate % inhibition, Table 2, rat +DHT, s.c. or p.o. (route not marked), 0.5 mg/animal daily 7 days): 24%; inhibition in vivo at 0.5 mg ([2]; read-out: SV % inhibition, Table 2, rat +DHT, s.c. or p.o. (route not marked), seminal vesicle, 0.5 mg/animal daily 7 days): 41%
Cc1cc(CN2CCOCC2)ccc1OCCC1(O)CCN(c2ccc(C#N)c3ccccc23)CC1 [EM-7676] |  |  |  |  |  | Human Androgen Receptor Binding (%) RBA R1881 = 100 (Human Androgen Receptor; Table 2): 0.3%; IC50 ([1]; Table 2, read-out: Shionogi Antiandrogenic Activity IC50): 147 nM; inhibition in vivo at 0.5 mg ([2]; read-out: Lev Ani % inhibition): 0%; inhibition in vivo at 0.5 mg ([2]; read-out: Prostate % inhibition): 0%; inhibition in vivo at 0.5 mg ([2]; read-out: SV % inhibition): 3%
